Series [1] can be described thus: Caco-2 cell permeability assay. Type of series: in vitro ADME. Conditions: human, Caco-2, pH 7.4; for Papp A→B at 60 min, 10 µM: read-out: Papp AB (10–6 cm/s); for Papp B→A at 60 min, 10 µM: read-out: Papp BA (10–6 cm/s). The procedure: Prior to the experiment a drug solution of 10 µM was prepared and warmed to 37 °C. The Caco-2 filters were washed with pre-warmed HBSS prior to the experiment, and thereafter the experiment was started by applying the donor solution on the apical or basolateral side. The transport experiments were carried out at pH 7.4 in both the apical and basolateral chamber. The experiments were performed at 37 °C and with a stirring rate of 500 rpm. The receiver compartment was sampled at 15, 30, and 60 min, and at 60 min also a final sample from the donor chamber was taken to calculate the mass balance of the compound. The samples (100 µL) were transferred to a 96-well plate containing 100 µL methanol and Warfarin as IS and was sealed until analyzed by liquid chromatography coupled to triple quadrupole mass spectrometry (LC-MS/MS).

The test system of series [2] is BJhTERT cells. The experiment in a line: Cell viability assay (resazurin), BJhTERT non-transformed control. Type of series: cell-based. Particulars: BJhTERT; for percentage cell viability: 100 μM, two independent experiments. A digest of the protocol:
(§1)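 Cells in FBS-supplemented media exposed to compound for 72 h at 37 °C, 5% CO2, then resazurin added to 10 µg/mL final. Viability expressed relative to untreated control wells; EC50 derived by curve fitting.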
Background: The colour change of resazurin is a common sign of viable cells or microbes.

Assay in series [3]: as above
In kind it is cell-based. Particulars: human, BJhTERT immortalized fibroblast cells, BJhTERT; for viability at 72 h, 100 µM: two independent experiments, read-out: percentage cell viability. A digest of the protocol: as §1

Series [4] can be described thus: Metabolic stability in human liver microsomes. In kind it is in vitro ADME. Conditions: pH 7.4, intrinsic clearance. The procedure: Human liver microsomes were purchased from BioIVT. Metabolic stability was determined in 0.5 mg/mL human liver microsomes at a compound concentration of 1 µM in 100 mM KPO4 buffer pH 7.4 in a total incubation volume of 500 µL. The reaction was initiated by the addition of 1 mM NADPH. At various incubation times, i.e., at 0, 5, 10, 20, 40, and 60 min, a sample was withdrawn from the incubation and the reaction was terminated by the addition of cold acetonitrile with warfarin as an internal standard. The amount of parent compound remaining was analyzed by liquid chromatography coupled to triple quadrupole mass spectrometry (LC-MS/MS).

Series [5] has as its system A2780 cells. Kind of series: Cancer cell viability assay (resazurin), A2780. Type of series: cell-based. Particulars: for percentage cell viability: A2780, 100 μM, 100 µM; for percentage cell viability / viability at 100 µM: two independent experiments; for viability at 100 µM: Homo sapiens, A2780, A2780, 100 μM, read-out: percentage cell viability. Further details: key to cell viability, cytotoxicity curve (Figure3H): % viability relative to untreated control wells. A digest of the protocol:
(§2)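 Cells were exposed for 72 h at 37 °C, 5% CO2 to 11-point compound dose-response curves in 10% FBS medium. Resazurin (final 10 µg/mL) was then added for 6 h and resorufin fluorescence read (ex 544/em 595 nm). Viability relative to untreated wells; EC50 from curve fitting.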

Series [6] has as its system A549 cells. Kind of series: Cancer cell viability assay (resazurin), A549. In kind it is cell-based. Conditions: two independent experiments; for percentage cell viability: A549, 100 μM, 100 µM; for viability at 100 µM: Homo sapiens, A549, A549, 100 μM, read-out: percentage cell viability. In outline:
as §2

Series [7] has as its target human OGG1 enzyme (Homo sapiens, UniProt O15527). Kind of series: Differential scanning fluorimetry (DSF) thermal shift assay. Type of series: binding. Further details: ∆Tm (K): unit of the concentration uncertain. Particulars: for ΔTm: concentration not given. The procedure:
The temperature was increased from 20 °C to 85 °C with 10 readings/degree. Tm values were calculated using an excel template and fitting to the Boltzmann equation in Prism v.6.07 (GraphPad Software).
In general terms: In DSF a fluorescence change marks the thermal transition of the protein.

The mark [8] stands for this setting: 99 (unit uncertain) as printed in sheet footnote.

The structures appear in SMILES notation. Values joined by “and” are separate entries in the source; they are usually repeats but may differ in a detail not shown here. Identical values can stand only once.

Chain of human OGG1 enzyme (O15527 whole entry): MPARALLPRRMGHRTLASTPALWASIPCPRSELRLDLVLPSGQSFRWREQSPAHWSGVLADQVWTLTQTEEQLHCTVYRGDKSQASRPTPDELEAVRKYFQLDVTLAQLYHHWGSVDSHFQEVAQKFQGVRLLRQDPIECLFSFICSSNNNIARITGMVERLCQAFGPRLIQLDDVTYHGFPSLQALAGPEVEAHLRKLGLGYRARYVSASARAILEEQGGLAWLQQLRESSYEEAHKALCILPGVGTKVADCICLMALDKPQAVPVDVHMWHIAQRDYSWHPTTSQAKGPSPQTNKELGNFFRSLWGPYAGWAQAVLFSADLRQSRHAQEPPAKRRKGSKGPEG

Broadly, the efflux ratio is the permeability from basolateral to apical divided by that in the opposite direction, in the common usage. As a reminder, the viability is a per cent measure of how many cells are alive, often set against a control. As a reminder, the microsomal CLint is a measure of how fast metabolising enzymes remove a compound, apart from limits set by blood flow. On to `Cc1nc(-c2ccc(CC(=O)Nc3noc4c3CCCC4)cc2)c(C)[nH]1` [compound 17], for which the efflux ratio at 60 min, 10 µM in series [1] turned out to be 6.7. Moreover, in series [1], the Papp A→B at 60 min, 10 µM was determined as 19.8 ×10⁻⁶ cm/s. Moreover, in series [1], the Papp B→A at 60 min, 10 µM was 134 ×10⁻⁶ cm/s. Besides, the percentage cell viability in series [2] was 38.43%; in series [5], 6.29%; in series [6], 56.76%. Further, the viability at 72 h, 100 µM in series [3] worked out at 28%. In series [4], this compound had a microsomal CLint at 1 µM of 23.9 µL/min/mg. For the same compound, the viability at 100 µM in series [5] came to 5.42%; in series [6] it was 52.6%. For the same compound, the “∆Tm (K)” value in series [7] (99 μM) was found to be 8.1 ± 0.1 K; in series [7] (99 μM, listed as Compound 17) it was 8.1 K; in series [7] (setting [8]) it was 8.1 ± 0.1 K. In addition, the ΔTm in series [7] was 8.1 K.
In the case of `O=C(Nc1ccc(I)cc1)N1CCC(n2c(=O)[nH]c3c(Br)cccc32)CC1` [TH5487, reference compound], in series [1], the Papp A→B at 60 min, 10 µM was found to be 4.16 ×10⁻⁶ cm/s. The Papp B→A at 60 min, 10 µM in series [1] was found to be 4.83 ×10⁻⁶ cm/s. The “cell viability, cytotoxicity curve (Figure3H)” value (from here on “cell viability … (Figure3H)”) in series [2] (Log conc. (M) 1.69824e-9) is recorded as 92.09; in series [2] (Log conc. (M) 5.12861e-9), 85.03; in series [2] (Log conc. (M) 1.51356e-8), 85.22; in series [2] (Log conc. (M) 4.57088e-8), 94.5; in series [2] (Log conc. (M) 1.38038e-7), 96.92; in series [2] (Log conc. (M) 4.0738e-7), 95.59. The “cell viability … (Figure3H)” value was 90.96 in series [2] (Log conc. (M) 1.23027e-6); 95.28 and 121.4 in series [2] (Log conc. (M) 3.71535e-6); 71.74 and 94.42 in series [2] (Log conc. (M) 1.12202e-5); 58.03 in series [2] (Log conc. (M) 3.31131e-5); 5.96 in series [2] (Log conc. (M) 0.0001); 121.27 and 94.15 in series [5] (A2780, Log conc. (M) 1.69824e-9). In addition, the “cell viability … (Figure3H)” value in series [5] (A2780, Log conc. (M) 5.12861e-9) is 114.3 and 105.95; in series [5] (A2780, Log conc. (M) 1.51356e-8) it was 105.54 and 93.28; in series [5] (A2780, Log conc. (M) 4.57088e-8), 111.22 and 83.28; in series [5] (A2780, Log conc. (M) 1.38038e-7) it was 102.55 and 80.89; in series [5] (A2780, Log conc. (M) 4.0738e-7), 93.7 and 80.77; in series [5] (A2780, Log conc. (M) 1.23027e-6), 109.2 and 106.39. Moreover, the “cell viability … (Figure3H)” value is 104.11 and 96.04 in series [5] (A2780, Log conc. (M) 3.71535e-6); 67.93 and 61.64 in series [5] (A2780, Log conc. (M) 1.12202e-5); 4.85 and 2.91 in series [5] (A2780, Log conc. (M) 3.31131e-5); 1.49 and 1.08 in series [5] (A2780, Log conc. (M) 0.0001). The viability at 72 h, 1.69824e-09 M in series [3] (Log conc. (M) 1.69824e-9, read-out: cell viability, cytotoxicity curve (Figure3H)) was 74.4%. Besides, the viability at 72 h, 5.12861e-09 M in series [3] (Log conc. (M) 5.12861e-9, read-out: cell viability, cytotoxicity curve (Figure3H)) was 72.6%. In series [3] (Log conc. (M) 1.51356e-8, read-out: cell viability, cytotoxicity curve (Figure3H)), the viability at 72 h, 1.51356e-08 M is 78%. In series [3] (Log conc. (M) 4.57088e-8, read-out: cell viability, cytotoxicity curve (Figure3H)), the viability at 72 h, 4.57088e-08 M came to 84%. Also, in series [3] (Log conc. (M) 1.38038e-7, read-out: cell viability, cytotoxicity curve (Figure3H)), the viability at 72 h, 1.38038e-07 M was determined as 81.8%. Moreover, in series [3] (Log conc. (M) 4.0738e-7, read-out: cell viability, cytotoxicity curve (Figure3H)), the viability at 72 h, 4.0738e-07 M turned out to be 80.5%. The viability at 72 h, 1.23027e-06 M in series [3] (Log conc. (M) 1.23027e-6, read-out: cell viability, cytotoxicity curve (Figure3H)) was determined as 81.8%. Also, the viability at 72 h, 3.31131e-05 M in series [3] (Log conc. (M) 3.31131e-5, read-out: cell viability, cytotoxicity curve (Figure3H)) stood at 47%. Besides, the viability at 72 h, 0.0001 M in series [3] (Log conc. (M) 0.0001, read-out: cell viability, cytotoxicity curve (Figure3H)) amounted to 5.37%. Moreover, the intrinsic clearance (microsomal CLint) at 1 µM in series [4] is 4.6 µL/min/mg. For the same compound, the “∆Tm (K)” value in series [7] (495 µM) and in series [7] (495 (unit uncertain) as printed in sheet footnote) was 4.3 K throughout. Further, in series [7], the ΔTm turned out to be 4.3 K.
As for `Cc1nc(-c2cc(F)c(CC(=O)Nc3noc4c3CCCC4)c(F)c2)c(C)[nH]1` [compound 23], the Papp A→B at 60 min, 10 µM in series [1] turned out to be 6.13 ×10⁻⁶ cm/s. Also, the Papp B→A at 60 min, 10 µM in series [1] amounted to 94.2 ×10⁻⁶ cm/s. Moreover, the percentage cell viability worked out at 68.66% in series [2], 42.92% in series [5] and 73.95% in series [6]. Further, the viability at 72 h, 100 µM in series [3] was 67.4%. In addition, in series [4], the microsomal CLint at 1 µM is 39.7 µL/min/mg. In addition, the viability at 100 µM in series [5] is 33.8%; in series [6], 60.6%. In addition, the “∆Tm (K)” value in series [7] (99 μM) and in series [7] (setting [8]) was 9.0 ± 0.2 K in each case. In addition, the ΔTm in series [7] is 9.0 K.
